The source of these data is PubChem BioAssay (NCI).

Molecules are shown by their SMILES.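 Interpolation was linear, between the two tested concentrations surrounding the appropriate level; five concentrations were tested over 48 hours in 96-well plates. The concentration for full growth arrest is given as TGI.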

Common to all, as to assay: NCI anticancer screen, dose series, 48 h
The subject of assay [1] is SW-620 colon.
For assay [2], the system named is SF-295 CNS.
The subject of assay [3] is SN12C renal.
Assay [4] relates to K-562 leukemia.
Assay [5] deals with IGROV1 ovarian.
For assay [6], the system named is SF-268 CNS.
Assay [7] has as its system NCI-H460 lung.
Assay [8] relates to PC-3 prostate.
Assay [9] has as its system OVCAR-3 ovarian.
The subject of assay [10] is HS 578T breast.
Assay [11] has as its system MDA-MB-231 breast.
Assay [12] deals with SR leukemia.
Assay [13] concerns UACC-62 melanoma.
Assay [14] has as its system CCRF-CEM leukemia.
In assay [15] the test system is RXF 393 renal.
Assay [16] deals with MDA-MB-435.
For assay [17], the system named is SK-MEL-5 melanoma.
Assay [18] concerns DU-145 prostate.
The subject of assay [19] is NCI-H522 lung.

Turning to `CC(Cn1c2c(c3cc(O)ccc31)CCc1ccc(O)cc1-2)N(C)C` (stereo unspecified), the TGI in [1] is 55 µM; in assay [2], 45.4 µM; in [3], 68.9 µM; in assay [4], over 100 µM; in [5], 29.1 µM; in assay [6], 53.2 µM. The TGI in assay [7] was 31.8 µM; in assay [8], 27.6 µM; in assay [9], 30.1 µM; in [10], 46 µM; in assay [11], 59.4 µM; in assay [12], over 100 µM. Moreover, the TGI in assay [13] is 35.9 µM; in assay [14], over 100 µM; in assay [15] it was 53.2 µM; in [16] it was 41 µM.
In the case of `CO/C(=N\N=C\c1ccc(Cl)c(Cl)c1)c1ccncc1`, the TGI in assay [1], in [2], in assay [3], in [4], in assay [5] and in [6] was over 10 µM throughout. Moreover, the TGI in [7], in assay [8], in assay [9], in [17], in [12] and in assay [14] was over 10 µM in each case. In assay [15], this molecule had a TGI of over 10 µM.
`O=C(NCCN1CCCCC1)c1cccc(I)c1`: the TGI in assay [1], in [3], in [4], in assay [5], in [6] and in assay [7] was over 100 µM throughout. Further, the TGI in assay [8], in [9], in assay [10], in [17], in assay [12] and in [13] was over 100 µM each time. For the same molecule, the TGI in assay [14] and in assay [15] was over 100 µM throughout.
For the molecule `COc1ccc(-c2nc(Nc3ccccc3)sc2Cc2sc(Nc3ccccc3)nc2-c2ccc(OC)cc2)cc1`, the TGI in [1], in [3], in assay [18], in [4], in [5] and in assay [6] was over 100 µM each time. For the same molecule, the TGI in assay [7], in [9], in assay [11], in assay [17], in [12] and in assay [13] was over 100 µM in each case. Further, the values for the TGI in assay [14], in assay [15] and in assay [16] were over 100 µM, 26.8 µM and over 100 µM, respectively.
On to `C1CSCC2(COC2)CSCCSCC2(COC2)CS1`, for which the TGI in assay [1], in assay [19], in [2], in assay [3], in assay [18] and in [4] was over 100 µM throughout. The TGI in assay [5], in assay [6], in assay [7], in [8], in [9] and in assay [11] was over 100 µM throughout. Further, the TGI in assay [17], in assay [12], in assay [13], in assay [14] and in assay [16] was over 100 µM in each case.
As to `COc1ccc(-c2nc(-c3cnccn3)n(C3OC(CO)C(O)C3O)n2)cc1` (stereo unspecified), the TGI in [1], in [19], in assay [2], in [3], in assay [4] and in assay [6] was over 10 µM each time. Besides, the TGI in [7], in assay [8], in assay [9], in [12], in [13] and in assay [14] was over 10 µM each time. In assay [16], this molecule displayed a TGI of over 10 µM.
As to `CC(=O)[C@H]1[C@H](O)C[C@@]2(C)[C@@H]3CCc4cc(O)c(OC5OC(CO)C(O)C(O)C5O)cc4C3(C)C(=O)C[C@]12C` (stereo partly specified), the TGI in assay [1], in [19], in assay [2], in assay [3], in assay [18] and in assay [4] was over 100 µM in each case. The TGI in assay [5], in [6], in assay [7], in assay [8], in assay [9] and in assay [11] was over 100 µM in each case. Moreover, the TGI in [17], in [12], in assay [13], in [14], in assay [15] and in assay [16] was over 100 µM throughout.
For `CC1=CCC(C(C)(C)NC(=O)c2ccccc2)C/C1=N/O` (stereo unspecified), the TGI in [1], in [19], in [2], in assay [3], in [18] and in [4] was over 100 µM each time. Further, the TGI in assay [5], in assay [6], in assay [7], in [8], in assay [9] and in assay [11] was over 100 µM in each case. For the same molecule, the TGI in [17], in assay [13], in assay [14] and in assay [16] was over 100 µM each time.
Turning to `Cc1cc(O)c(/C=N/C(=S)Nc2ccc(S(N)(=O)=O)cc2)c(=O)o1`, the TGI in [1], in assay [2], in assay [3], in assay [18], in [5] and in assay [6] was over 100 µM in each case. Moreover, the TGI in [7], in [9], in assay [11], in assay [17], in assay [13] and in assay [15] was over 100 µM in each case. This molecule gave a TGI in assay [16] of over 100 µM.
`CCOC(=O)c1c[nH]c(C(=O)C=[N+]=[N-])c1C1CCN(CC)C1=S` (stereo unspecified): the TGI in assay [1], in [19], in [2], in assay [18], in assay [4] and in assay [5] was over 100 µM each time. Further, the TGI in assay [6], in assay [7], in [8], in assay [9], in assay [10] and in [11] was over 100 µM each time. In addition, the TGI in assay [17], in [13], in [15] and in assay [16] was over 100 µM each time.
Take `Cc1ccc(S(=O)(=O)N2CCSCCSCCSCCN(S(=O)(=O)c3ccc(C)cc3)CC2)cc1`: the TGI in assay [1], in [2], in assay [3], in [18], in [4] and in assay [5] was over 100 µM in each case. In addition, the TGI in [6], in assay [7], in assay [9], in assay [10], in assay [11] and in [17] was over 100 µM each time. For the same molecule, the TGI in assay [13], in assay [15] and in assay [16] was over 100 µM in each case.
As to `COc1ccccc1N/C(SCc1ccccc1)=C(/C(Cl)=C(Cl)Cl)[N+](=O)[O-]`, the TGI was 31.7 µM in assay [1]; 59.6 µM in [2]; 47.3 µM in [3]; over 100 µM in [18]; 57.9 µM in assay [4]; 39 µM in [6]. The TGI is over 100 µM in assay [7]; over 100 µM in [8]; 40.7 µM in assay [9]; 48.4 µM in [11]; over 100 µM in [13]; over 100 µM in assay [14]. In assay [16], the TGI turned out to be 42.5 µM.
For the molecule `CC(=O)/C(=C\I)c1ccccc1`, the TGI was determined as 2.82 µM in assay [1]; 33.7 µM in assay [2]; 15.3 µM in assay [18]; 4.61 µM in [4]; 4.25 µM in [5]; 36.5 µM in [6]. Moreover, the TGI in [7] came out at 24.7 µM; in [8], 5.08 µM; in assay [9] it was 3.23 µM; in [10], 40.5 µM; in assay [11], 3.74 µM; in assay [13], 3.96 µM. For the same molecule, the TGI in assay [14] came to 5.19 µM; in assay [15], 3.36 µM; in assay [16] it was 12.8 µM.
Consider `Cc1ccc(S(=O)(=O)N2CCNCCN(S(=O)(=O)c3ccc(C)cc3)CCNCC2)cc1`, for which the TGI in [1] was over 100 µM; in assay [19] it was 36.5 µM; in [2], 32 µM; in assay [3], over 100 µM; in [18] it was 71.8 µM; in [4], 31.4 µM. Besides, the TGI was found to be 42.9 µM in [5]; 55 µM in [6]; 36.8 µM in assay [7]; 27.7 µM in [9]; 35.7 µM in [10]; 60.4 µM in [11]. Further, the TGI in assay [17] was determined as 29.9 µM; in assay [12] it was 34.1 µM; in assay [13], 34.5 µM; in assay [15], 14.7 µM; in assay [16], 36.4 µM.
Regarding `O=c1c(Sc2c(SCSc3cnc4ccccc4c3Sc3c[nH]c4ccccc4c3=O)cnc3ccccc23)c[nH]c2ccccc12`, the TGI in assay [1], in [19], in assay [2], in assay [3], in [18] and in assay [5] was over 100 µM in each case. The TGI in assay [6], in assay [7], in [9], in assay [10], in assay [11] and in assay [17] was over 100 µM each time. The TGI in assay [12] was 25 µM; in assay [13] it was over 100 µM; in assay [14] it was over 100 µM; in assay [16], over 100 µM.
Turning to `C=C1C(=O)O[C@H]2C1C[C@H](O)[C@@]1(C)OC1CC[C@@]1(C)O[C@H]21` (stereo partly specified), the TGI in assay [1] is 33.2 µM; in assay [19], 11.9 µM; in assay [2], over 100 µM; in assay [3] it was 32.4 µM; in [18] it was over 100 µM; in assay [4], 19.7 µM. Besides, the TGI in assay [5] is 31 µM; in [6], 95.7 µM; in [7] it was over 100 µM; in [8], 39.1 µM; in assay [10] it was over 100 µM; in assay [17] it was 35.4 µM. Also, the TGI was found to be 40.5 µM in assay [12]; 28.2 µM in assay [13]; 8.68 µM in [14]; 46.9 µM in [15]; 53.2 µM in assay [16].
As for `COc1cc(C2c3cc4c(cc3C(=O)C3CCC(=O)N32)OCO4)cc(OC)c1O` (stereo unspecified), the TGI in assay [1], in assay [2], in assay [3], in [18], in assay [4] and in assay [5] was over 50 µM each time. For the same molecule, the TGI in assay [7], in assay [8], in assay [9], in assay [12], in [13] and in assay [14] was over 50 µM each time. Moreover, the TGI in [15] and in [16] was over 50 µM in each case.
Turning to `CCOc1ccc(NC(=O)C(=O)Nn2c(N)nnc2N)cc1`, the TGI in [1], in assay [19], in assay [2], in assay [3], in assay [4] and in assay [5] was over 100 µM each time. The TGI in assay [6], in [7], in assay [8], in [9], in assay [10] and in [11] was over 100 µM in each case. Besides, the TGI in [17], in assay [12], in [13], in assay [14], in assay [15] and in assay [16] was over 100 µM each time.
